Experimental data from patent publication US4512986A, “Progrestationally active steroids” (priority 1983, dated 1985).

Tests used:
[1] = tested on: androgen target organs of castrate immature male rats; assay: Anti-androgenic activity in the castrate immature rat assay; type: in vivo; conditions: testosterone alone sc
Description: The oral anti-androgenic activity of 6-methyl-6-dehydro-17α-ethynylprogesterone was evaluated in the castrate immature male rat assay [Lerner et al., Proc. Soc. […] The assay is briefly described in the footnotes to Table 11.
*This assay employs castrate immature rats. For methods refer to Lerner,
L. J., A. Bianchi and A. Borman, Proc. Soc.
**Groups of rats (7/group) were given daily injections of 0.3 ml sesame
oil (control) or compound (in 0.3 ml sesame oil) for 7 days. Some groups
also concurrently received progestational compounds by the sc or oral
route of administration in order to evaluate antiandrogenic activity. One
day after the final doses, the animals were sacrificed and the androgen
target organs indicated were weighed.
***Statistically significant (p < 0.05) lower organ weights versus the
testosterone, sc, (400 μg/rat/day) group as determined by Analysis of
Variance coupled with Duncan's Multiple Range Test.

[2] = biological target: T1, Cytosol Progesterone Receptor of the Estrogen-primed Immature Rabbit Uterus (Oryctolagus cuniculus, UniProt P06186); assay: Relative binding affinity for progesterone receptor (competition with 3H-progesterone); design: species or system rabbit (New Zealand White)
T1 construct: cytosol progesterone receptor of the estrogen-primed immature rabbit uterus; tissue Dutchland Laboratories, Inc., Denver, Pa (animals); host or cells: uterus cytosol of estradiol-treated immature female New Zealand White rabbits
T1 sequence (P06186 1-930): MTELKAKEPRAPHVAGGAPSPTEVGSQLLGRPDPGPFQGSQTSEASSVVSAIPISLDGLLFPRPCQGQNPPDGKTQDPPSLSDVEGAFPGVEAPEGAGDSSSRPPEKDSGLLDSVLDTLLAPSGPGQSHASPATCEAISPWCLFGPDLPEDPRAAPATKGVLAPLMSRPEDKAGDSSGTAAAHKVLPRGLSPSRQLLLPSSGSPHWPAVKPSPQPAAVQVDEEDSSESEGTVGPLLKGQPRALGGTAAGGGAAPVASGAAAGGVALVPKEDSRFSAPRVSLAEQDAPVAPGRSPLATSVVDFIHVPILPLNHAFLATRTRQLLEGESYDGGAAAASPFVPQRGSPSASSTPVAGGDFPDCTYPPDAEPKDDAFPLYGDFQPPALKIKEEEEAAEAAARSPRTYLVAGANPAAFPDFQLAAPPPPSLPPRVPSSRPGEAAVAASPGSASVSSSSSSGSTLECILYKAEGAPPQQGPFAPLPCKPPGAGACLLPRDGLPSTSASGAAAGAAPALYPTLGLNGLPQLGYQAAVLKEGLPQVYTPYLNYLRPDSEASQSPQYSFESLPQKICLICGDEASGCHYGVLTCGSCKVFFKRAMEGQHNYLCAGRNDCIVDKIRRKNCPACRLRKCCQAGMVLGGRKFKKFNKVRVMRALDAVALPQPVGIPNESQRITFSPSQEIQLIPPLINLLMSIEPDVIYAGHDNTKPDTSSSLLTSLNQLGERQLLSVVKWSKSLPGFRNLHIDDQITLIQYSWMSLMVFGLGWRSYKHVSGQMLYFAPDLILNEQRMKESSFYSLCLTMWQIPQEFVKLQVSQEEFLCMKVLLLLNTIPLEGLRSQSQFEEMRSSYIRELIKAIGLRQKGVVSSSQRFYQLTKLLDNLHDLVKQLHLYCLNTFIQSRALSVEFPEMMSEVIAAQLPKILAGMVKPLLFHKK
Description: RBA values recorded at 0° C. after short incubation times (e.g., 2 hr) mainly reflect differences in the association rate constants of the competing ligands, whereas those measured after long incubation times (e.g., 16 to 24 hr) and/or higher temperatures predominantly are influenced by differences in the dissociation rate constants of the competing ligands. RBA's determined after short incubation times primarily reflect the association of the competitor compared to the natural hormone. Conversely, RBA's measured after long incubation times reflect the dissociation rate of the competitor compared to the natural hormone.
The assay components are combined, allowed to equilibrate, and unbound radioactivity removed by charcoal adsorption.
Animal species. Immature female New Zealand White rabbits weighing 0.8 to 1.0 kg (Dutchland Laboratories, Inc., Denver, Pa).
Pretreatment. Subcutaneous treatment with 15 μg 17β-estradiol/0.6 ml sesame oil each morning (0830 to 0930 hr) for three days. Animals sacrificed 24 hr after final injection.
Tissue. Uterus; each uterus weighed about 1.0 g and two or three uteri were pooled for each assay.
Buffer. (A) 0.01M TES, pH 7.4, 1 mM EDTA, 0.012M thioglycerol and 30% glycerol for cytosol preparation and ^3 H-steroid, unlabeled hormone and compound solutions. (B) 0.01M TES, pH 7.4, 1 mM EDTA and 0.012M thioglycerol for charcoal solution.
Homogenization. Five or six 5-second bursts with 30 second cooling periods between bursts using Brinkman Polytron Pt. 10 at 3.5 rheostat setting.
Temperature. 0°-4° C. for all steps.
Centrifugation. 45,000 rpm for 1 hr, 50 Ti rotor, Beckman L8-80 ultracentrifuge.
Incubation. 16-18 hr at 4°-6° C.
Concentations. 1×10^-10 M to 1×10^-5 M (7 concentrations).
Method. Charcoal adsorption method used to remove unbound radioactivity. Five-tenths ml of dextran-coated charcoal (0.5% Norit A and 0.05% dextran T-70) added to all tubes except total radioactivity tubes (0.5 ml buffer [B] added), tubes vortexed 3-5 sec, allowed to sit for 10 minutes and centrifuged 10 minutes at 2000 rpm in Beckman TJ-6 centrifuge at 0°-4° C.
Data Interpretation. […] The relative binding affinity (RBA) of each compound was calculated by using the following equation. [formula] where

[3] = tested on: uterine endometrium of estrone-primed immature rabbits; assay: Clauberg assay (progestational activity, McPhail); type: in vivo, rabbit (New Zealand White); conditions: for McPhail Index (0-4) (X ± S.D.): 0 none, 4 maximal
[4] = Assay 2, 16-18 hour incubation, progesterone = 100, 5α-dihydro-17α-ethynyl: lot 1
[5] = Assay 3, 16-18 hour incubation, progesterone = 100, 5α-dihydro-17α-ethynyl: lot 1

C[C@]12CC[C@H]3[C@@H](CCC4=CC(=O)CC[C@@]43C)[C@@H]1CC[C@@H]2O [Testosterone]
Levator Ani weight (X ± S.D.) ([1]; 25 μg/rat daily): 36 ± 4 mg | Seminal Vesicles weight (X ± S.D.) ([1]; 25 μg/rat daily): 23 ± 12 mg | Ventral Prostate weight (X ± S.D.) ([1]; 25 μg/rat daily): 18 + 5 mg | Levator Ani weight (X ± S.D.) ([1]; 100 μg/rat daily): 53 ± 6 mg | Seminal Vesicles weight (X ± S.D.) ([1]; 100 μg/rat daily): 66 ± 6 mg | Ventral Prostate weight (X ± S.D.) ([1]; 100 μg/rat daily): 35 ± 5 mg | Levator Ani weight (X ± S.D.) ([1]; 400 μg/rat daily): 63 ± 14 mg | Seminal Vesicles weight (X ± S.D.) ([1]; 400 μg/rat daily): 163 ± 43 mg | Ventral Prostate weight (X ± S.D.) ([1]; 400 μg/rat daily): 70 ± 22 mg

C#C[C@]1(C(C)=O)CC[C@H]2[C@@H]3CC[C@H]4CC(=O)CC[C@@H]4[C@H]3CC[C@@]21C [17α-Ethynyl-19-nor-5α-pregnane-3,20-dione]
RBA ([2]; Assay 4, 16-18 hour incubation, progesterone = 100): 67% | RBA ([2]; Assay 5, 16-18 hour incubation, progesterone = 100): 66%

C=C[C@]1(C(C)=O)CC[C@H]2[C@@H]3CC[C@H]4CC(=O)CC[C@]4(C)[C@H]3CC[C@@]21C [5α-Dihydro-17α-vinylprogesterone]
RBA [2, 4]: 47% | RBA [2, 5]: 51%

C#C[C@]1(C(C)=O)CC[C@H]2[C@@H]3CC[C@H]4CC(=O)CC[C@]4(C)[C@H]3CC[C@@]21C [5α-Dihydro-17α-ethynylprogesterone, 17α-Ethynyl-5α-pregnane-3,20-dione]
RBA, mean of assays (X±S.D.) ([2]; 16 to 18 hour incubation at 0° C., spurious value 11 excluded): 154±23 | RBA ([2]; Assay 1, 16-18 hour incubation, progesterone = 100, 5α-dihydro-17α-ethynyl: lot 1): 11% | RBA [2, 4]: 186% | RBA [2, 5]: 144% | RBA ([2]; Assay 3, lot 2, 16-18 hour incubation, progesterone = 100): 133% | RBA ([2]; two-hour incubation at 0° C.): 211 | Uterine Weight (X ± S.D.) ([3]; oral, 100 μg/rabbit daily): 1.00 g | McPhail Index (0-4) (X ± S.D.) ([3]; oral, 100 μg/rabbit daily): 0 | Uterine Weight (X ± S.D.) ([3]; oral, 200 μg/rabbit daily): 1.30 ± 0.22 g | McPhail Index (0-4) (X ± S.D.) ([3]; oral, 200 μg/rabbit daily): 0.04 ± 0.06 | Uterine Weight (X ± S.D.) ([3]; oral, 400 μg/rabbit daily): 1.10 ± 0.08 g | McPhail Index (0-4) (X ± S.D.) ([3]; oral, 400 μg/rabbit daily): 0.04 ± 0.06 | progestational response, in words ([3]; sc 5, 10, 20, 100, 200, 400 and oral 100, 200, 400 μg/rabbit/day): inactive at all doses examined | Uterine Weight (X ± S.D.) ([3]; sc, 5 μg/rabbit daily): 0.90 ± 0.29 g | McPhail Index (0-4) (X ± S.D.) ([3]; sc, 5 μg/rabbit daily): 0.08 ± 0.12 | Uterine Weight (X ± S.D.) ([3]; sc, 10 μg/rabbit daily): 1.33 ± 0.09 g | McPhail Index (0-4) (X ± S.D.) ([3]; sc, 10 μg/rabbit daily): 0.29 ± 0.24 | Uterine Weight (X ± S.D.) ([3]; sc, 20 μg/rabbit daily): 1.03 ± 0.17 g | McPhail Index (0-4) (X ± S.D.) ([3]; sc, 20 μg/rabbit daily): 0.04 ± 0.06 | Uterine Weight (X ± S.D.) ([3]; sc, 100 μg/rabbit daily): 1.18 ± 0.25 g | McPhail Index (0-4) (X ± S.D.) ([3]; sc, 100 μg/rabbit daily): 0.13 ± 0.13 | Uterine Weight (X ± S.D.) ([3]; sc, 200 μg/rabbit daily): 1.15 ± 0.07 g | McPhail Index (0-4) (X ± S.D.) ([3]; sc, 200 μg/rabbit daily): 0.58 ± 0.16 | Uterine Weight (X ± S.D.) ([3]; sc, 400 μg/rabbit daily): 1.24 ± 0.09 g | McPhail Index (0-4) (X ± S.D.) ([3]; sc, 400 μg/rabbit daily): 0.33 ± 0.06
